Biological target: T1, human Cav2.2 (Homo sapiens, UniProt Q00975)
T1 construct: IMR32 cells endogenously expressing human Cav2.2; endogenous in cells; host or cells: IMR32 cells (human neuroblastoma)
Experiment: Assessment of calcium channel activity using FLIPR (Ca2+ influx in IMR32 cells)
Type: cell-based
Conditions: IMR32 cells endogenously expressing human Cav2.2, Calcium 4 dye, 60 minute pre-incubation, 2 μM nifedipine, depolarized with 80 mM KCl, 5 mM CaCl2
Procedure: (i) In Vitro Methods—Assessment of Calcium Channel Activity Using FLIPR:
IMR32 cells endogenously expressing human Cav2.2 were assayed for Ca^2+ influx using a no-wash calcium indicator dye (Calcium 4 dye: Molecular Probes) and FLIPR technology (Lubin, M. L.; Reitz, T. L.; Todd, M. J.; Flores, C. M.; Qin, N.; Xin, H. Assay and Drug Development Technologies 2006, 4(6), 689-694.). The IMR32 cells were maintained in MEM media containing 10% (v/v) FBS, 1% (v/v) antibiotic/antimitotic, 1% (v/v) sodium pyruvate and 1% (v/v) MEM NEAA. Following dissociation in 0.05% (v/v) trypsin/EDTA, cells were seeded into black 1×96-well plates (Corning Cellbind) at a density of 1−1.2×10^5 cells/well and incubated in the maintenance media above for 48 hours at 37° C. Immediately prior to performing the assay the media was removed and cells were loaded for 1.5 hours with 1×Calcium 4 dye prepared in HBSS (137 mM NaCl, 5.4 mM KCl, 0.25 mM Na2HPO4, 0.44 mM KH2PO4, 1.3 mM CaCl2, 1 mM MgSO4, 4.2 mM NaHCO3) containing HEPES pH 7.4 at room temperature. After dye loading and a subsequent 60 minute pre-incubation with compounds (full log dilutions from 10 μM to 0.1 nM) in the presence of 1.3 mM CaCl2 and 2 μM nifedipine to block endogenous L-type channels, the external Ca^2+ concentration was increased to 5 mM CaCl2 and the cells concomitantly depolarized with 80 mM KCl to assay channel activity. To determine the IC50 values, the percent inhibition of the compound at each concentration was determined relative to the activity in the absence of inhibitor, and data was fitted using non-linear regression sigmoidal dose response curve analysis with GraphPad Prism®.

T1 sequence (Q00975 whole entry): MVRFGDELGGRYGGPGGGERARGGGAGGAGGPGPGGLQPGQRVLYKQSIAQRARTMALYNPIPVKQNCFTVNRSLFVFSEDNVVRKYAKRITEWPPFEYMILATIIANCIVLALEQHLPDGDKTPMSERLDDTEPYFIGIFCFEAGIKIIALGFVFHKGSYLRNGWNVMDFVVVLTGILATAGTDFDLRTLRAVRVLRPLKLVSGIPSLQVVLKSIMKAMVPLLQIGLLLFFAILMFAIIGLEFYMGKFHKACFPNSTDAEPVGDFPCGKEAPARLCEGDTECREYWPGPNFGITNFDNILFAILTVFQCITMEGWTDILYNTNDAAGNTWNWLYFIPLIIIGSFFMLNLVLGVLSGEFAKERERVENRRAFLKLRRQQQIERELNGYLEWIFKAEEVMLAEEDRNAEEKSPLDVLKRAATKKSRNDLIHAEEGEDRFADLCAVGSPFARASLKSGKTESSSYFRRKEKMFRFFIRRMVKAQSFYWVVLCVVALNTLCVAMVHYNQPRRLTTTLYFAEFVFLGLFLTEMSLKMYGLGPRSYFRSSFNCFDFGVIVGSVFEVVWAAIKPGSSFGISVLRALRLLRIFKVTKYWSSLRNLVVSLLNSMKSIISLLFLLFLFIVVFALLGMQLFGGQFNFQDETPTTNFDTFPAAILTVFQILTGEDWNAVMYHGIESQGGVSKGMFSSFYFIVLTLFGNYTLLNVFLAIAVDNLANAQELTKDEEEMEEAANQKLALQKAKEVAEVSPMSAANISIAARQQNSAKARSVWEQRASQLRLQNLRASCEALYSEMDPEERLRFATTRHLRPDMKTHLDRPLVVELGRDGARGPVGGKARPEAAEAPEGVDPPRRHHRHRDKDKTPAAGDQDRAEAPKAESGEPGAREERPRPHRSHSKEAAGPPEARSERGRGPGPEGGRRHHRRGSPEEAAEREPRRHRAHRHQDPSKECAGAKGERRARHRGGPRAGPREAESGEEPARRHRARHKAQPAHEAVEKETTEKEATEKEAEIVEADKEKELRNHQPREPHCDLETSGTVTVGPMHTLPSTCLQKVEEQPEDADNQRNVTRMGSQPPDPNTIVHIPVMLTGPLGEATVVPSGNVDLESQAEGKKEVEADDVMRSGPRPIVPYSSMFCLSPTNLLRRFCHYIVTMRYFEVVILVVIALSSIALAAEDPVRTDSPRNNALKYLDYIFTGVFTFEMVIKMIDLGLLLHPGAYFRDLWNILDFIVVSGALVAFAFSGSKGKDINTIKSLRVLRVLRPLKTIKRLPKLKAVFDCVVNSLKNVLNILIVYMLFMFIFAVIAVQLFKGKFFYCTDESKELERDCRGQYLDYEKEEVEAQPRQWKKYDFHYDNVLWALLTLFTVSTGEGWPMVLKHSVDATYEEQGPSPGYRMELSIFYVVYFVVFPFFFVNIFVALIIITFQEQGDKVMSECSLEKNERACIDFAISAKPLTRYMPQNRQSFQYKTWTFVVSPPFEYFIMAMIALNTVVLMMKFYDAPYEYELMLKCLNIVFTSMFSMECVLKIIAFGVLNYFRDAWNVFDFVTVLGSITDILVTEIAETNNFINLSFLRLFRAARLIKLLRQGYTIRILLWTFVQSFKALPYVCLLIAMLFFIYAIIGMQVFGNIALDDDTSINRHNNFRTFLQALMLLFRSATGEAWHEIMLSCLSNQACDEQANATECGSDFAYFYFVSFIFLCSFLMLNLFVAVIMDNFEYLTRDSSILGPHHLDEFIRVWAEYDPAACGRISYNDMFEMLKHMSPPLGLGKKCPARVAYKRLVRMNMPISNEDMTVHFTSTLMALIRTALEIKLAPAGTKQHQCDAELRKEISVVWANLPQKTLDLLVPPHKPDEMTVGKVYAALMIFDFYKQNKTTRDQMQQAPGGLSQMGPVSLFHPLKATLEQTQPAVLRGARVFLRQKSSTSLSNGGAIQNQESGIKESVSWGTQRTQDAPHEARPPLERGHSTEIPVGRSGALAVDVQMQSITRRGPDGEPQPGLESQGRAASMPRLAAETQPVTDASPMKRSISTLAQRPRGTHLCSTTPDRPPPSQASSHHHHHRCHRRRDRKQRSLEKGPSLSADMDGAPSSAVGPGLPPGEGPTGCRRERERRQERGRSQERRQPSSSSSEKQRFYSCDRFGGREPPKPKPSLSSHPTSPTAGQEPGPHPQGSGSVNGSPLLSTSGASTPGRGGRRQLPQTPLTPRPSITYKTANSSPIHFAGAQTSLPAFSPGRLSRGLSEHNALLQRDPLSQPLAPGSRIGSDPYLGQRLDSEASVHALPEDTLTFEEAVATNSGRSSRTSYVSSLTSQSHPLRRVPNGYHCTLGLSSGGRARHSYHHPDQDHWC
T1 sequence (P54289 25-956 partner limits assumed): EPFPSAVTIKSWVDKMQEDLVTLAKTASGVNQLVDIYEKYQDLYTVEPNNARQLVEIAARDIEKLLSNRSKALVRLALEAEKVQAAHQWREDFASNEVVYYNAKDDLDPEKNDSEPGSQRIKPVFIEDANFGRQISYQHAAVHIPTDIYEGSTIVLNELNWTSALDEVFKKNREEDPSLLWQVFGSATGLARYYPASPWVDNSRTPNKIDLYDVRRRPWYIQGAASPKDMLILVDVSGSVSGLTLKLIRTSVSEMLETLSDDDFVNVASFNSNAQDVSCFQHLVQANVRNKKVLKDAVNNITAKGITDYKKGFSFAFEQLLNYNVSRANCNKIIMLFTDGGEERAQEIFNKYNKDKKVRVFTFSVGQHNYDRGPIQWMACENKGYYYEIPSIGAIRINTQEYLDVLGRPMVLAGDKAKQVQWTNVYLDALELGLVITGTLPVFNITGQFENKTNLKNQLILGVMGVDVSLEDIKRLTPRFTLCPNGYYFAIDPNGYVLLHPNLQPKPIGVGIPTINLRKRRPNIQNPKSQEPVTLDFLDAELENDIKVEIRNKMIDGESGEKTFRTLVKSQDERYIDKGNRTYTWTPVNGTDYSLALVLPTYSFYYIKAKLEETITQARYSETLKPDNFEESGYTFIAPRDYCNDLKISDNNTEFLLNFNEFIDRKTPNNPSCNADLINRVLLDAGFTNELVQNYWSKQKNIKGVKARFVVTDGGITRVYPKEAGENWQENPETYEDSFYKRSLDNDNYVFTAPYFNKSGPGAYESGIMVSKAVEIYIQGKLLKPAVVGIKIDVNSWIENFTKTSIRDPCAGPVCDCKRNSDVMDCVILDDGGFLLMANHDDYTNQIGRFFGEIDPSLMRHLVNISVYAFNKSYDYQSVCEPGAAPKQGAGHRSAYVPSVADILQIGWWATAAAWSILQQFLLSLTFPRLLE
T1 sequence (P54289 957-1103 partner limits assumed): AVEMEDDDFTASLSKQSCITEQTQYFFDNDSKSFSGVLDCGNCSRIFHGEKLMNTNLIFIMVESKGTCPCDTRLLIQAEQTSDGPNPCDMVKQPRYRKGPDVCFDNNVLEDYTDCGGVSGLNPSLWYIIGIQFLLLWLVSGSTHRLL
T1 sequence (P54284 whole entry partner): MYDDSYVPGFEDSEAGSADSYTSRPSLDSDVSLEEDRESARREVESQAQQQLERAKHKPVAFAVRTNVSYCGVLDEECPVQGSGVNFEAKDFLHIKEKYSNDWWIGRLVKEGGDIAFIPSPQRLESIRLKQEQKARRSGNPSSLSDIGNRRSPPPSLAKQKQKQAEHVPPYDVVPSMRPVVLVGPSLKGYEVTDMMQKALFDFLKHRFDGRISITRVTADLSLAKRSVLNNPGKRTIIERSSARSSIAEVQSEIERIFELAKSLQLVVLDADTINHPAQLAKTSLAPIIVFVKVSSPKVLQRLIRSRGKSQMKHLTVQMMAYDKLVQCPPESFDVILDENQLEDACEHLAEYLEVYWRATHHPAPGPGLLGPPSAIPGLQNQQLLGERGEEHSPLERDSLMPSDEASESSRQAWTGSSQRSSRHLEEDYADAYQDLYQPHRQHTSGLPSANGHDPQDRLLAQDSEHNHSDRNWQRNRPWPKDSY

| SMILES | IC50 [µM] |
| --- | --- |
| C[C@]1(NC(=O)c2cccc(F)c2)CC[C@@H]2CN(c3cccc(C(F)(F)F)n3)C[C@@H]21 [Example 19, 3-fluoro-N-{(3aR,4S,6aS)-4-methyl-2-[6-(trifluoromethyl)pyridin-2-yl]octahydrocyclopenta[c]pyrrol-4-yl}benzamide] | 1.82 |
| C[C@]1(NCc2ccccc2)CC[C@@H]2CN(c3cccc(C(F)(F)F)n3)C[C@@H]21 [Example 20, (3aR,4S,6aS)—N-benzyl-4-methyl-2-[6-(trifluoromethyl)pyridin-2-yl]octahydrocyclopenta[c]pyrrol-4-amine] | 0.38 |
| C[C@@]1(NCc2ccccc2)CC[C@@H]2CN(c3cccc(C(F)(F)F)n3)C[C@@H]21 [Example 21, (3aR,4R,6aS)—N-benzyl-4-methyl-2-[6-(trifluoromethyl)pyridin-2-yl]octahydrocyclopenta[c]pyrrol-4-amine] | 1.03 |
| CCN[C@]1(C)CC[C@@H]2CN(c3cccc(C(F)(F)F)n3)C[C@@H]21 [Example 22, (3aR,4R,6aS)—N-ethyl-4-methyl-2-[6-(trifluoromethyl)pyridin-2-yl]octahydrocyclopenta[c]pyrrol-4-amine] | 5.85 |
| CCN[C@@]1(C)CC[C@@H]2CN(c3cccc(C(F)(F)F)n3)C[C@@H]21 [Example 23, (3aR,4S,6aS)—N-ethyl-4-methyl-2-[6-(trifluoromethyl)pyridin-2-yl]octahydrocyclopenta[c]pyrrol-4-amine] | 1.76 |
| C[C@@]1(NCc2cccc(F)c2)CC[C@@H]2CN(c3cccc(C(F)(F)F)n3)C[C@@H]21 [Example 24, (3aR,4R,6aS)—N-(3-fluorobenzyl)-4-methyl-2-[6-(trifluoromethyl)pyridin-2-yl]octahydrocyclopenta[c]pyrrol-4-amine] | 0.33 |
| C[C@]1(NCc2cccc(F)c2)CC[C@@H]2CN(c3cccc(C(F)(F)F)n3)C[C@@H]21 [Example 25, (3aR,4S,6aS)—N-(3-fluorobenzyl)-4-methyl-2-[6-(trifluoromethyl)pyridin-2-yl]octahydrocyclopenta[c]pyrrol-4-amine] | 0.18 |
| C[C@@]1(N)CC[C@@H]2CN(c3cccc(C(F)(F)F)n3)C[C@@H]21 [Example 26, (3aR,4R,6aS)-4-methyl-2-[6-(trifluoromethyl)pyridin-2-yl]octahydrocyclopenta[c]pyrrol-4-amine] | 3.64 |
| C[C@]1(N)CC[C@@H]2CN(c3cccc(C(F)(F)F)n3)C[C@@H]21 [Example 27, (3aR,4S,6aS)-4-methyl-2-[6-(trifluoromethyl)pyridin-2-yl]octahydrocyclopenta[c]pyrrol-4-amine] | 1.8 |
| O[C@@H]1CC[C@@H]2CN(c3cccc(C(F)(F)F)n3)C[C@@H]21 [Example 30, (3aR,4R,6aS)-2-[6-(trifluoromethyl)pyridin-2-yl]octahydrocyclopenta[c]pyrrol-4-ol] | 15.8 |
| O[C@H]1CC[C@@H]2CN(c3cccc(C(F)(F)F)n3)C[C@@H]21 [Example 31, (3aR,4S,6aS)-2-[6-(trifluoromethyl)pyridin-2-yl]octahydrocyclopenta[c]pyrrol-4-ol] | 9.62 |
| O=C1CC[C@@H]2CN(c3cccc(C(F)(F)F)n3)C[C@H]12 [Example 32, (3aR,6aS)-2-[6-(trifluoromethyl)pyridin-2-yl]hexahydrocyclopenta[c]pyrrol-4(1H)-one] | 21.4 |
| C[C@@]1(O)CC[C@@H]2CN(c3cccc(C(F)(F)F)n3)C[C@@H]21 [Example 33, (3aR,4R,6aS)-4-methyl-2-[6-(trifluoromethyl)pyridin-2-yl]octahydrocyclopenta[c]pyrrol-4-ol] | 8.34 |
| CC(C)[C@@]1(O)CC[C@@H]2CN(c3cccc(C(F)(F)F)n3)C[C@@H]21 [Example 34, (3aR,4S,6aS)-4-isopropyl-2-[6-(trifluoromethyl)pyridin-2-yl]octahydrocyclopenta[c]pyrrol-4-ol] | 3.05 |
| O[C@]1(c2ccccc2)CC[C@@H]2CN(c3cccc(C(F)(F)F)n3)C[C@@H]21 [Example 35, (3aR,4R,6aS)-4-phenyl-2-[6-(trifluoromethyl)pyridin-2-yl]octahydrocyclopenta[c]pyrrol-4-ol] | 2.87 |
| O[C@]1(c2cccc(F)c2)CC[C@@H]2CN(c3cccc(C(F)(F)F)n3)C[C@@H]21 [Example 36, (3aR,4R,6aS)-4-(3-fluorophenyl)-2-[6-(trifluoromethyl)pyridin-2-yl]octahydrocyclopenta[c]pyrrol-4-ol] | 6.13 |
| O[C@]1(Cc2ccc(F)c(F)c2)CC[C@@H]2CN(c3cccc(C(F)(F)F)n3)C[C@@H]21 [Example 37, (3aR,4S,6aS)-4-(3,4-difluorobenzyl)-2-[6-(trifluoromethyl)pyridin-2-yl]octahydrocyclopenta[c]pyrrol-4-ol] | 3.72 |

| SMILES | IC50 [µM] |
| --- | --- |
| CC(c1cccc(F)c1)[C@@]1(O)CC[C@@H]2CN(c3cccc(C(F)(F)F)n3)C[C@@H]21 (stereo partly drawn) [Example 38, (3aR,4S,6aS)-4-[1-(3-fluorophenyl)ethyl]-2-[6-(trifluoromethyl)pyridin-2-yl]octahydrocyclopenta[c]pyrrol-4-ol] | 6.1 |
| CO[C@H]1CC[C@@H]2CN(c3cccc(C(F)(F)F)n3)C[C@@H]21 [Example 40, (3aR,4S,6aS)-4-methoxy-2-[6-(trifluoromethyl)pyridin-2-yl]octahydrocyclopenta[c]pyrrole] | 3.37 |
| CCO[C@H]1CC[C@@H]2CN(c3cccc(C(F)(F)F)n3)C[C@@H]21 [Example 41, (3aR,4S,6aS)-4-ethoxy-2-[6-(trifluoromethyl)pyridin-2-yl]octahydrocyclopenta[c]pyrrole] | 3.32 |
| CC(C)O[C@H]1CC[C@@H]2CN(c3cccc(C(F)(F)F)n3)C[C@@H]21 [Example 42, (3aR,4S,6aS)-4-isopropoxy-2-[6-(trifluoromethyl)pyridin-2-yl]octahydrocyclopenta[c]pyrrole] | 3.82 |
| CC(C)(C)O[C@H]1CC[C@@H]2CN(c3cccc(C(F)(F)F)n3)C[C@@H]21 [Example 43, (3aR,4S,6aS)-4-tert-butoxy-2-[6-(trifluoromethyl)pyridin-2-yl]octahydrocyclopenta[c]pyrrole] | 2.54 |
| Fc1cccc(O[C@H]2CC[C@@H]3CN(c4cccc(C(F)(F)F)n4)C[C@@H]32)c1 [Example 44, (3aR,4S,6aS)-4-(3-fluorophenoxy)-2-[6-(trifluoromethyl)pyridin-2-yl]octahydrocyclopenta[c]pyrrole] | 6.01 |
| Fc1cccc(CO[C@H]2CC[C@@H]3CN(c4cccc(C(F)(F)F)n4)C[C@@H]32)c1 [Example 45, (3aR,4S,6aS)-4-[(3-fluorobenzyl)oxy]-2-[6-(trifluoromethyl)pyridin-2-yl]octahydrocyclopenta[c]pyrrole] | 8.05 |
| Fc1cccc(CCO[C@H]2CC[C@@H]3CN(c4cccc(C(F)(F)F)n4)C[C@@H]32)c1 [Example 46] | 8.41 |
| O[C@]1(c2ccccc2)CC[C@@H]2CN(Cc3ccccc3)C[C@@H]21 [Example 47, (3aR,4R,6aS)-2-benzyl-4-phenyloctahydrocyclopenta[c]pyrrol-4-ol] | 8.83 |
| Fc1cccc(O[C@H]2CC[C@@H]3CN(Cc4ccccc4)C[C@@H]32)c1 [Example 48, (3aR,4S,6aS)-2-benzyl-4-(3-fluorophenoxy)octahydrocyclopenta[c]pyrrole] | 2.95 |
| C=C1CC[C@@H]2CN(c3cccc(C(F)(F)F)n3)C[C@H]12 [Example 49, (3aS,6aS)-4-methylene-2-[6-(trifluoromethyl)pyridin-2-yl]octahydrocyclopenta[c]pyrrole] | 24.9 |
| FC(F)(F)c1cccc(N2C[C@H]3CC[C@H](n4ccnc4)[C@H]3C2)n1 [Example 50, (3aR,4S,6aS)-4-(1H-imidazol-1-yl)-2-[6-(trifluoromethyl)pyridin-2-yl]octahydrocyclopenta[c]pyrrole] | 4.3 |
| FC(F)(F)c1cccc(N2C[C@H]3CC[C@H](n4cccn4)[C@H]3C2)n1 [Example 51, (3aR,4S,6aS)-4-(1H-pyrazol-1-yl)-2-[6-(trifluoromethyl)pyridin-2-yl]octahydrocyclopenta[c]pyrrole] | 1.39 |
| FC(F)(F)c1cccc(N2C[C@H]3CC[C@H](n4cc(Cl)cn4)[C@H]3C2)n1 [Example 52, (3aR,4S,6aS)-4-(4-chloro-1H-pyrazol-1-yl)-2-[6-(trifluoromethyl)pyridin-2-yl]octahydrocyclopenta[c]pyrrole] | 7.39 |
| FC(F)(F)c1cccc(N2C[C@H]3CC[C@H](OC[C@@H]4CCCN4)[C@H]3C2)n1 [Example 53, (3aR,4S,6aS)-4-[(2S)-pyrrolidin-2-ylmethoxy]-2-[6-(trifluoromethyl)pyridin-2-yl]octahydrocyclopenta[c]pyrrole] | 0.66 |
| CC(C)(C)OC(=O)N1C[C@H]2CC[C@H](C(=O)Nc3cccc(F)c3)[C@H]2C1 [Example 54] | 11.6 |
| O=C(Nc1cccc(F)c1)[C@H]1CC[C@@H]2CNC[C@@H]21 [Example 55, (3aS,4S,6aS)—N-(3-fluorophenyl)octahydrocyclopenta[c]pyrrole-4-carboxamide] | > 30 |

Reference: patent US8796470B2 (AbbVie Inc., priority 2010, dated 2014)
